# In US7405037B2, “Methods and tools for detecting collagen degradation” (Lonza Walkersville, Inc., priority 2004, dated 2008):
# No end group written: not given here.
# Key:
# [1] = tested on: primary human osteoclasts; experiment: OsteoLyse assay: release of europium chelate-labeled collagen fragments by osteoclasts; type: cell-based; set-up: inhibition of bone matrix degradation: dose or concentration left out as unconfirmed
# Procedure: Remove a 96-well cell culture plate to which europium chelate-labeled collagen (e.g., collagen labeled with Eu^3+-N′-(p-isothiocyanatobenzyl) diethylenetriamine-N^1,N^2,N^3-tetraacetic acid) is covalently bound from 4° C. storage and let it warm to room temperature. Seed mature osteoclasts or osteoclast precursors (human or non-human) onto the cell culture plate in medium containing M-CSF and soluble RANK ligand. If using Cambrex's primary human osteoclast precursors (Poietics™ Human Osteoclast Precursors), seed the cells at a density of 10,000 cells/well in osteoclast precursor differentiation medium (Cambrex product # PT-8001). See Example 2 for a detailed protocol for the culture of primary human osteoclast precursors (Cambrex product # 2T-110). Precursors cultured in the absence of soluble RANK ligand can serve as “undifferentiated” controls.
# Culture the cells for 6 days and then renew the cell culture medium. Fresh medium preferably contains the same concentrations of M-CSF and soluble RANK ligand as in the original day 0 medium. Unused control and differentiation media from day 0 can be frozen (on day 0) and used for the day 6 medium changes.
# At least two different types of protocols can be used. If the assay is used to measure the effect of a test compound on differentiation of the osteoclast precursor, the test compound typically is added at day 0 and removed at day 6. However, if the assay is used to measure the effect of a test compound on mature osteoclast function (i.e., bone matrix collagen degradation), the test compound typically is added at day 6 with the new medium addition.
# The cell culture medium can be sampled at any time after the medium change. Because a very small volume (5 to 10 μl) of medium is sampled, it is very easy to do time-course studies by repeatedly sampling the medium on sequential days. Medium volumes greater than 10 μl are unnecessary and, because an excess of fluorophore releasing reagent with respect to sample is desired, actually may lead to inefficient counting of the fluorophore as the ratio of fluorophore releasing reagent to sample decreases. […]
# Determine the fluorescence of each well of the assay vessel in a time-resolved fluorescence fluorimeter (e.g., a Wallac Victor, with excitation at 340 nm and emission at […]) over a […] time period after an initial delay of 400 μseconds.
# Primary human osteoclast precursors were seeded onto europium chelate-labeled collagen covalently bound to a maleic anhydride-derivatized polystyrene plate (Pierce Reacti-Bind™) at 10,000 cells/well and cultured in differentiation medium containing (1) no calcitonin, (2) calcitonin added only at day 5, or (3) calcitonin added on both days 0 and 5. Ten μl samples of culture media were counted after a total of 6 days. […]
# [2] = tested on: primary human osteoclast precursors; experiment: TRAP stain (multinucleated TRAP-positive cells/well); type: cell-based
# Procedure: Primary human osteoclast precursors were seeded onto europium chelate-labeled collagen covalently bound to a maleic anhydride-derivatized polystyrene plate at 10,000 cells/well and cultured in medium containing soluble RANK ligand with and without interferon γ. After 9 days, cell culture media were assayed for fluorescent collagen peptides as described in Example 1. Cells in the plate were subsequently stained for TRAP (Sigma # 386-A).
# In another experiment, osteoclast precursors were cultured in differentiation medium with and without different concentrations of alendronate. After 7 days the media were renewed and, after an additional 3 days, the cell culture media were sampled as described in Example 1. Cells in the plate were subsequently stained for TRAP (Sigma # 386-A).
# [3] = tested on: osteoclast precursors; experiment: Osteoclast-mediated degradation of covalently bound FITC-labeled collagen (DQ collagen); type: cell-based, human; settings: 1 ng/ml; days 5, 7 and 9 of culture; FITC-labeled bovine type I collagen
# Procedure: FITC-labeled bovine type I collagen (DQ collagen, Molecular Probes, Inc.) was covalently bound to the surface of a maleic anhydride-derivatized 96-well tissue culture plate. Osteoclast precursors were cultured, with and without differentiation, in the plate as described in Example 2. Interferon γ (1 ng/ml) was added to some wells. At days 5, 7 and 9 of culture, 10 μl samples of each well were collected and added to 200 μl phosphate-buffered saline and counted in a fluorimeter (485/535 nm).
# [4] = 9 days of culture, medium with soluble RANK ligand
compound,measurement,setting,value
NCCCC(O)(P(=O)(O)O)P(=O)(O)O [alendronate],IC50,"[1]; Osteoclast, OsteoLyse assay, primary human osteoclasts, read-out: IC50, in vitro inhibition of bone resorption",~2000 nM
same,inhibition of differentiation of osteoclast precursors (multinucleated TRAP-positive osteoclasts),"[2]; different concentrations, medium renewed after 7 days, 3 additional days",did not inhibit
"calcitonin (CGNLSTCMLGTYTQDFNKFHTFPQTAIGVGAP; ends and bridges not checked; cysteine pairing not given here; UniProt P01258 85-116, looked up)",effect on resorptive activity of the osteoclasts,[1]; calcitonin added on days 0 and 5 (prior exposure on day 0),little effect
same,inhibition of bone matrix degradation,"[1]; calcitonin for 24 hours (added day 5 of culture), counted after 6 days",88%
interferon γ [cytokine added to osteoclast precursor cultures],"IC50, percent inhibition relative to controls, OsteoLyse assay",[1]; [4],approximately 0.1 ng/ml
same,"IC50, percent inhibition relative to controls, TRAP assay",[2]; [4],approximately 0.1 ng/ml
same,inhibition of osteoclast-mediated collagen degradation,[3],completely inhibited
